Reference: patent US20110218217A1, “PIPERIDYLPROPIONAMIDE DERIVATIVES USEFUL FOR THE TREATMENT OF CNS DISORDERS INCLUDING DEPRESSION AND PANIC DISORDER” (NEUROSEARCH A/S, priority 2008, published 2011)
pIC50: −log10 of the molar value. Like-named read-outs stand apart in the source and are kept apart here.

How the values were obtained:
Type in all cases: biochemical
[1] = target: T1, reuptake of serotonine (5-HT) in synaptosomes (Rattus norvegicus, UniProt P31652); assay: Inhibition of 5-HT reuptake in synaptosomes; settings: 3H-5-HT, read-out: 5-HT-uptake IC50
T1 construct: in synaptosomes as described in WO 97/16451 (NeuroSearch A/S); from tissue
T1 sequence (P31652 whole entry): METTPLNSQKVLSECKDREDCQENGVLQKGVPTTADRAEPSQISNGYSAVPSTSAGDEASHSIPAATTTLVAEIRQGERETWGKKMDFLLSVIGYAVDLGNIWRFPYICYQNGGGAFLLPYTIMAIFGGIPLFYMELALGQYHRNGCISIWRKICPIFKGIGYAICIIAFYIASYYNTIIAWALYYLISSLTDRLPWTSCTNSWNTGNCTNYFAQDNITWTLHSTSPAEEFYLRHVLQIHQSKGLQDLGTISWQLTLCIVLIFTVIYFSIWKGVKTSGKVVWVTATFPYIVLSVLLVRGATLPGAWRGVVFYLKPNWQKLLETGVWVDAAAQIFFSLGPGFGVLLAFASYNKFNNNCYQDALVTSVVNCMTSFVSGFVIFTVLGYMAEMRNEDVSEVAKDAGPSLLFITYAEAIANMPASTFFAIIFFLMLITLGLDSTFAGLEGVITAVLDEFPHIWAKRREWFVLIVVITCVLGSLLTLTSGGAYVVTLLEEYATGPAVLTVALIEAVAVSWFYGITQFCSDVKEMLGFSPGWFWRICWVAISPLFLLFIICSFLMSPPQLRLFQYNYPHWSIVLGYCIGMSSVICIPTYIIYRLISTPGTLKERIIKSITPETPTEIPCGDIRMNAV
Protocol: (§1) Compounds were tested for their ability to inhibit the reuptake of the monoamine neurotransmitters dopamine (DA) noradrenaline (NA) and serotonine (5-HT) in synaptosomes as described in WO 97/16451 (NeuroSearch A/S).
(§2) The test values are given as IC50 (the concentration (μM) of the test substance which inhibits the specific binding of ^3H-DA, ^3H-NA, or ^3H-5-HT by 50%).

[2] = target: T2, reuptake of dopamine (DA) in synaptosomes (Rattus norvegicus, UniProt P23977); assay: Inhibition of DA reuptake in synaptosomes
T2 construct: in synaptosomes as described in WO 97/16451 (NeuroSearch A/S); from tissue
T2 sequence (P23977 whole entry): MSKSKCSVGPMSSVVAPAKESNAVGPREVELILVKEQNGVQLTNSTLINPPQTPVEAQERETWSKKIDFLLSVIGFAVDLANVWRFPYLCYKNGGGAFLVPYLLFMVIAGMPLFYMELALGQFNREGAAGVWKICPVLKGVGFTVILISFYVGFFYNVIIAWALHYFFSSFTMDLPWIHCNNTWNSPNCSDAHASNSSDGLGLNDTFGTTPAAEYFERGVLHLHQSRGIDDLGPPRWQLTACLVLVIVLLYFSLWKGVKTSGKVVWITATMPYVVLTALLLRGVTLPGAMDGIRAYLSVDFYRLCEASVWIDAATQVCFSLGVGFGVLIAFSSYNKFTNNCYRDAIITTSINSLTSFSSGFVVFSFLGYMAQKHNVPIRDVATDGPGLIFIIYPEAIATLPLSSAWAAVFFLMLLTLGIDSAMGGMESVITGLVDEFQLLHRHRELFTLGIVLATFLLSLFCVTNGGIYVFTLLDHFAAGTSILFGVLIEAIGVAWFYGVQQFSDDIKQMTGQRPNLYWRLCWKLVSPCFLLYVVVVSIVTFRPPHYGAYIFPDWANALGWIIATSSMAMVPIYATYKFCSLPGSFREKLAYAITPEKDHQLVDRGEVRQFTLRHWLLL
Protocol: as §1, §2

[3] = target: T3, reuptake of noradrenaline (NA) in synaptosomes (Rattus norvegicus, UniProt Q63380); assay: Inhibition of NA reuptake in synaptosomes
T3 construct: in synaptosomes as described in WO 97/16451 (NeuroSearch A/S); from tissue
T3 sequence (Q63380 1-617): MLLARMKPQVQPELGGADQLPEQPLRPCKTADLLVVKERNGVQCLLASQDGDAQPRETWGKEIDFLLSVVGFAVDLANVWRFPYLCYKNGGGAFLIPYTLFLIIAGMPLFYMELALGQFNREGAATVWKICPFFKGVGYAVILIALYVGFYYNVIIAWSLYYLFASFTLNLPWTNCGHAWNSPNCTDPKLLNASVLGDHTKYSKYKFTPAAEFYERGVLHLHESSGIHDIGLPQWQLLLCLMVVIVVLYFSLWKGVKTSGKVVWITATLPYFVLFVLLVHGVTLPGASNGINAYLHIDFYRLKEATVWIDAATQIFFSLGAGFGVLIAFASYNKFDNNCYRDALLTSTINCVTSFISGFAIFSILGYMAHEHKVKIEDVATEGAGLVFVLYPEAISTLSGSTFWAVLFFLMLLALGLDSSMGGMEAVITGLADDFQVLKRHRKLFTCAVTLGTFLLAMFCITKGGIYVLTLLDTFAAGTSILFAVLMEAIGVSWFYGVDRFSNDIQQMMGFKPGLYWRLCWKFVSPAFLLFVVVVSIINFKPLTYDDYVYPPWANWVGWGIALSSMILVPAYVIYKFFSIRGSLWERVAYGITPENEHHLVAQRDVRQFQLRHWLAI
Protocol: as §1, §2

[4] = 3H-DA, synaptosomes, read-out: DA-uptake IC50
[5] = 3H-NA, synaptosomes, read-out: NA-uptake IC50

Row | SMILES | pIC50 [1] | pIC50 [2, 4] | pIC50 [3, 5] | pIC50 [2] | pIC50 [3]
1 | CN1CCC(CCC(=O)N(C)c2ccc(Cl)c(Cl)c2)CC1 [N-(3,4-Dichloro-phenyl)-N-methyl-3-(1-methyl-piperidin-4-yl)-propionamide] | < 6.00 | 6.48 | 7.06 |  | 
2 | CCN(C(=O)CCC1CCN(C)CC1)c1ccc(Cl)c(Cl)c1 [N-(3,4-Dichloro-phenyl)-N-ethyl-3-(1-methyl-piperidin-4-yl)-propionamide] | < 6.00 | 8.20 | 8.19 |  | 
3 | CCCN(C(=O)CCC1CCN(C)CC1)c1ccc(Cl)c(Cl)c1 [N-(3,4-Dichloro-phenyl)-3-(1-methyl-piperidin-4-yl)-N-propyl-propionamide] | 6.09 |  |  | 8.00 | 9.00

Second part, led by results:

Row | pIC50 [1] | pIC50 [2, 4] | pIC50 [3, 5] | SMILES | pIC50 [2] | pIC50 [3]
4 | < 6.00 | 8.51 | 8.59 | CCN(C(=O)CCC1CCNCC1)c1ccc(Br)c(Cl)c1 [N-(4-Bromo-3-chloro-phenyl)-N-ethyl-3-piperidin-4-yl-propionamide] |  | 
5 | 5.68 | 7.96 | 7.96 | CCN(C(=O)CCC1CCNCC1)c1ccc(Cl)c(Cl)c1 [N-(3,4-Dichloro-phenyl)-N-ethyl-3-piperidin-4-yl-propionamide] |  | 
6 | 5.85 | 8.01 | 8.72 | CCCN(C(=O)CCC1CCNCC1)c1ccc(Cl)c(Cl)c1 [N-(3,4-Dichloro-phenyl)-3-piperidin-4-yl-N-propyl-propionamide] |  | 
7 | < 6.00 | 8.17 | 8.89 | CCN(C(=O)CCC1CCN(C)CC1)c1ccc(Br)c(Cl)c1 [N-(4-Bromo-3-chloro-phenyl)-N-ethyl-3-(1-methyl-piperidin-4-yl)-propionamide] |  | 
8 | < 6.00 | 6.66 | 6.11 | CN(C(=O)CCC1CCNCC1)c1ccc(Cl)c(Cl)c1 [N-(3,4-Dichloro-phenyl)-N-methyl-3-piperidin-4-yl-propionamide] |  | 
